According to patent publication US11618743B2, “Herbicidal compounds” (SYNGENTA PARTICIPATIONS AG, priority 2017, dated 2023):

Assays:
Experiment in all cases: Post-emergence efficacy, Method A
Format in all cases: in vivo
Setaria faberi (SETFA) = settings: Application rate 500 g/Ha, evaluated after 13 days; for Control of weed species after post-emergence application, SETFA: 100=total damage to plant, 0=no damage; for Control of weed species SETFA after post-emergence application (100=total damage to plant; 0=no damage to plant): Method A
Protocol: (§1) Seeds of a variety of test species were sown in standard soil in pots. After cultivation for 14 days (post-emergence) under controlled conditions in a glasshouse (at 24/16° C., day/night; 14 hours light; 65% humidity), the plants were sprayed with an aqueous spray solution derived from the dissolution of the technical active ingredient formula (I) in a small amount of acetone and a special solvent and emulsifier mixture referred to as IF50 (11.12% Emulsogen EL360 TM+44.44% N-methylpyrrolidone+44.44% Dowanol DPM glycol ether), to create a 50 g/l solution which was then diluted to required concentration using 0.25% or 1% Empicol ESC70 (Sodium lauryl ether sulphate)+1% ammonium sulphate as diluent.
(§2) The test plants were then grown in a glasshouse under controlled conditions (at 24/16° C., day/night; 14 hours light; 65% humidity) and watered twice daily. After 13 days the test was evaluated (100=total damage to plant; 0=no damage to plant).
(§3) Ipomoea hederacea (IPOHE), Euphorbia heterophylla (EPHHL), Chenopodium album (CHEAL), Amaranthus palmeri (AMAPA), Lolium perenne (LOLPE), Digitaria sanguinalis (DIGSA), Eleusine indica (ELEIN), Echinochloa crus-galli (ECHCG), Setaria faberi (SETFA)

Eleusine indica (ELEIN) = settings: Application rate 500 g/Ha, evaluated after 13 days; for Control of weed species after post-emergence application, ELEIN: 100=total damage to plant, 0=no damage; for Control of weed species ELEIN after post-emergence application (100=total damage to plant; 0=no damage to plant): Method A
Protocol: as §1, §2, §3

[1] = tested on: Digitaria sanguinalis (DIGSA); settings: Application rate 500 g/Ha, evaluated after 13 days; for Control of weed species after post-emergence application, DIGSA: 100=total damage to plant, 0=no damage; for Control of weed species DIGSA after post-emergence application (100=total damage to plant; 0=no damage to plant): Method A
Protocol: as §1, §2, §3

[2] = tested on: Ipomoea hederacea (IPOHE); settings: Application rate 500 g/Ha; evaluated after 13 days; 100=total damage to plant, 0=no damage
Protocol: as §1, §2, §3

Lolium perenne (LOLPE) = settings: Application rate 500 g/Ha, evaluated after 13 days; for Control of weed species LOLPE after post-emergence application (100=total damage to plant; 0=no damage to plant): Method A
Protocol: as §1, §2, §3

[3] = tested on: Amaranthus palmeri (AMAPA); settings: Application rate 500 g/Ha, evaluated after 13 days; for Control of weed species after post-emergence application, AMAPA: 100=total damage to plant, 0=no damage; for Control of weed species AMAPA after post-emergence application (100=total damage to plant; 0=no damage to plant): Method A
Protocol: as §1, §2, §3

[4] = tested on: Chenopodium album (CHEAL); settings: Application rate 500 g/Ha, evaluated after 13 days; for Control of weed species after post-emergence application, CHEAL: 100=total damage to plant, 0=no damage; for Control of weed species CHEAL after post-emergence application (100=total damage to plant; 0=no damage to plant): Method A
Protocol: as §1, §2, §3

[5] = tested on: Echinochloa crus-galli (ECHCG); settings: Application rate 500 g/Ha, evaluated after 13 days; for Control of weed species after post-emergence application, ECHCG: 100=total damage to plant, 0=no damage; for Control of weed species ECHCG after post-emergence application (100=total damage to plant; 0=no damage to plant): Method A
Protocol: as §1, §2, §3

[6] = tested on: Euphorbia heterophylla (EPHHL); settings: Application rate 500 g/Ha, evaluated after 13 days; for Control of weed species EPHHL after post-emergence application (100=total damage to plant; 0=no damage to plant): Method A; for Control of weed species after post-emergence application, EPHHL: 100=total damage to plant, 0=no damage
Protocol: as §1, §2, §3

Structure (SMILES)	Control of weed species after post-emergence application, SETFA (Setaria faberi (SETFA))	Control of weed species after post-emergence application, ELEIN (Eleusine indica (ELEIN))	Control of weed species after post-emergence application, DIGSA [1]	Control of weed species after post-emergence application, IPOHE [2]	Control of weed species after post-emergence application, LOLPE (Lolium perenne (LOLPE); 100=total damage to plant, 0=no damage)	Control of weed species after post-emergence application, AMAPA [3]	Control of weed species after post-emergence application, CHEAL [4]	Control of weed species after post-emergence application, ECHCG [5]	Control of weed species SETFA after post-emergence application (100=total damage to plant; 0=no damage to plant) (Setaria faberi (SETFA))	Control of weed species LOLPE after post-emergence application (100=total damage to plant; 0=no damage to plant) (Lolium perenne (LOLPE))	Control of weed species ECHCG after post-emergence application (100=total damage to plant; 0=no damage to plant) [5]	Control of weed species EPHHL after post-emergence application (100=total damage to plant; 0=no damage to plant) [6]	Control of weed species ELEIN after post-emergence application (100=total damage to plant; 0=no damage to plant) (Eleusine indica (ELEIN))	Control of weed species DIGSA after post-emergence application (100=total damage to plant; 0=no damage to plant) [1]	Control of weed species AMAPA after post-emergence application (100=total damage to plant; 0=no damage to plant) [3]	Control of weed species CHEAL after post-emergence application (100=total damage to plant; 0=no damage to plant) [4]	Control of weed species after post-emergence application, EPHHL [6]
CCOP(=O)(O)CCC[n+]1ccc(-c2ncccn2)cn1 [Compound A232]	80	50	90	0	20	100	90	100									
O=C(O)CC[n+]1ccc(-c2ncccn2)cn1.[Cl-] [Compound A26, 3-(4-pyrimidin-2-ylpyridazin-1-ium-1-yl)propanoic Acid Chloride]									100	90	100						
O=C(O)CC[n+]1ccc(-c2ncccn2)cn1.O=C([O-])C(F)(F)F [Compound A125, 3-(4-pyrimidin-2-ylpyridazin-1-ium-1-yl)propanoic acid 2,2,2-trifluoroacetate]										90							
O=C(O)CC[n+]1ccc(-c2ncc(F)cc2F)cn1.O=C([O-])C(F)(F)F [Compound A144]									20		20	20	20	30	20	10	
O=C(O)CC[n+]1ccc(-c2ncccc2Cl)cn1.O=C([O-])C(F)(F)F [Compound A149]									40		50	30	60	50	30	40	
O=C(O)CC[n+]1ccc(-c2cnc(C(F)(F)F)cn2)cn1.O=C([O-])C(F)(F)F [Compound A121]									30		40	80	20	40	100	80	
CCOC(=O)CC[n+]1ccc(-c2ncccn2)cn1.O=C([O-])C(F)(F)F [Compound A82]									60		30	40	60	30	70	80	
Nc1cc(-c2cc[n+](CCC(=O)O)nc2)ccn1.O=C([O-])C(F)(F)F [Compound A210]	30	20	60			70	10	10									10
O=C([O-])C(F)(F)F.O=P(O)(O)CC[n+]1ccc(-c2ncccn2)cn1 [Compound A198]	90	80	80			100	100	80									100
O=C(O)C(O)C[n+]1ccc(-c2ccncn2)cn1.O=C([O-])C(F)(F)F (centres unmarked) [Compound A190]	40	70	60			100	80	60									80
CC(CC(=O)O)[n+]1ccc(-c2ccncn2)cn1.O=C([O-])C(F)(F)F (centres unmarked) [Compound A172]	50	70	80			30	60	50									50
O=C(O)CC[n+]1ccc(-c2ccccn2)cn1.O=C([O-])C(F)(F)F [Compound A148]									50		50	60	40	50	100	40	
CC(CC(=O)O)[n+]1ccc(-c2ncccn2)cn1.O=C([O-])C(F)(F)F (centres unmarked) [Compound A40, 3-(4-pyrimidin-2-ylpyridazin-1-ium-1-yl)butanoic acid 2,2,2-trifluoroacetate]									100		90	90	90	90	90	70	
Cc1n[n+](CCC(=O)O)ccc1-c1ncccn1.[Cl-] [Compound A133]									90		70	20	90	70	60	40	
Nc1nccc(-c2cc[n+](CCC(=O)O)nc2)n1.O=C([O-])C(F)(F)F [Compound A160]	90	80	70			100	100	70									90
O=C(O)CC[n+]1ccc(-c2cncc(C(F)(F)F)n2)cn1.O=C([O-])C(F)(F)F [Compound A120]									40		40	50	30	40	90	70	
COC(=O)CC[n+]1ccc(-c2ccncc2)cn1.O=C([O-])C(F)(F)F [Compound A203]	60	60	70			100	90	50									50
